Assay results: patent publication US20210244712A1, “METHODS FOR TREATING PATIENTS WITH CANCER HAVING DEFECTS IN CYCLIN D REGULATION” (NysnoBio Ireland DAC, priority 2018, published 2021)
pEC50, pIC50: −log10 of the molar value.

Columns and labels:
Format in all cases: cell-based
OAW28 = assay: Cell proliferation assay; conditions: Homo sapiens, OAW-28
Cyclin D = Cyclin D degradation in cell lines; conditions: text summary of Table 7
HCT-116 = assay: Senescence quantification (SA-βGal), Example 6A; conditions: Compound 42 250 nM, Palbociclib 1 μM, compared to control (DMSO)
Procedure: Day 1: 96 well plate was seeded with 4000 cells/well and incubated for 24 hours at 37° C. […]
Day 6: Senescence cells histochemical Staining Kit (Sigma) was used. The growth medium form the cells were aspirated then washed twice with fresh […]. […] 100 μL filtered Fixation Buffer was added per well and the plate was incubated for 6-7 minutes at room temperature. Then, the cells were rinsed 3 times with PBS. 50 μL of the Staining Mixture was added per well and incubated at 37° C. overnight without CO2 (staining is pH dependent). After staining, the Staining Mixture was removed, PBS and Hoechst dye (1 μg/mL) were added. Ten images were taken with Epifluorescence Microscope using the blue filter and 10 images were taken in the brightfield. The images were used to count the total cell number—the positive blue cells were counted in the bright field. The percentage of cells expressing β-galactosidase was calculated.
Method 1: Mammalian β-Galactosidase Assay Kit (Thermo Scientific) was used. […] The cells were washed once with PBS. 100 μL of the β-Galactosidase Assay Reagent was added to each well and the plate was covered and incubated for 30 minutes at 37° C. without CO2. The absorbance was measured at 405 nm. […]
Method 2: Assay of a portion of the lysate. […] 25 μL of lysate was removed and use it for Protein Quantification (BCA). […]
Senescence was quantified according to Example 4. […]

COV504 = assay: Cell proliferation assay; conditions: 72 hrs, read-out: Cell Viability: IC50
Procedure, shortened: (§1)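 4×10^4 cells/ml plated, o/n 37° C./5% CO2; cpd added in triplicate, 72 hrs. Wash PBS, pNPP 10 mM in 0.1M NaOAc pH 5.5, 2 h 37° C. dark, stop NaOH, A405–A620. % inhibition vs DMSO.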

Calu-1 = assay: Cell proliferation assay; conditions: Homo sapiens, 72 hrs, read-out: Cell Viability: IC50
Procedure, shortened: as §1

DLD-1 = assay: Cell proliferation assay; conditions: Homo sapiens, 72 hrs, read-out: Cell Viability: IC50
Procedure, shortened: as §1

Hutu 80 = assay: Cell proliferation assay; conditions: Homo sapiens, HuTu80, 72 hrs, read-out: Cell Viability: IC50
Procedure, shortened: as §1

JIMT-1 = assay: Cell proliferation assay; conditions: Homo sapiens, 72 hrs, read-out: Cell Viability: IC50
Procedure, shortened: as §1

KPL-1 = assay: Cell proliferation assay; conditions: 72 hrs, read-out: Cell Viability: IC50
Procedure, shortened: as §1

LOVO = assay: Cell proliferation assay; conditions: Homo sapiens, 72 hrs, read-out: Cell Viability: IC50
Procedure, shortened: as §1

LS174T = assay: Cell proliferation assay; conditions: Homo sapiens, 72 hrs, read-out: Cell Viability: IC50
Procedure, shortened: as §1

MDA-MB-231 = assay: Cell proliferation assay; conditions: Homo sapiens, 72 hrs, read-out: Cell Viability: IC50
Procedure, shortened: as §1

MDA-MB-453 = assay: Cell proliferation assay; conditions: Homo sapiens, 72 hrs, read-out: Cell Viability: IC50
Procedure, shortened: as §1

MSTO-211H = assay: Cell proliferation assay; conditions: Homo sapiens, 72 hrs, read-out: Cell Viability: IC50
Procedure, shortened: as §1

NCl-H1395 = assay: Cell proliferation assay; conditions: 72 hrs, read-out: Cell Viability: IC50
Procedure, shortened: as §1

NCl-H292 = assay: Cell proliferation assay; conditions: 72 hrs, read-out: Cell Viability: IC50
Procedure, shortened: as §1

OVISE = assay: Cell proliferation assay; conditions: 72 hrs, read-out: Cell Viability: IC50
Procedure, shortened: as §1

OVSAHO = assay: Cell proliferation assay; conditions: Homo sapiens, 72 hrs, read-out: Cell Viability: IC50
Procedure, shortened: as §1

OVTOKO = assay: Cell proliferation assay; conditions: 72 hrs, read-out: Cell Viability: IC50
Procedure, shortened: as §1

SK-BR-3 = assay: Cell proliferation assay; conditions: Homo sapiens, 72 hrs, read-out: Cell Viability: IC50
Procedure, shortened: as §1

SK-CO-1 = assay: Cell proliferation assay; conditions: Homo sapiens, 72 hrs, read-out: Cell Viability: IC50
Procedure, shortened: as §1

SK-LU-1 = assay: Cell proliferation assay; conditions: Homo sapiens, 72 hrs, read-out: Cell Viability: IC50
Procedure, shortened: as §1

SW527 = assay: Cell proliferation assay; conditions: 72 hrs, read-out: Cell Viability: IC50
Procedure, shortened: as §1

SW948 = assay: Cell proliferation assay; conditions: Homo sapiens, 72 hrs, read-out: Cell Viability: IC50
Procedure, shortened: as §1

T-47D = assay: Cell proliferation assay; conditions: Homo sapiens, T47D, 72 hrs, read-out: Cell Viability: IC50
Procedure, shortened: as §1

ZR-75-1 = assay: Cell proliferation assay; conditions: Homo sapiens, 72 hrs, read-out: Cell Viability: IC50
Procedure, shortened: as §1

## Cc1ccccc1C(=O)Nc1nc(NC(=O)c2ccccc2C)n(-c2ccc(OC(F)(F)F)cc2)n1 [Compound 42, N,N′-(1-(4-(trifluoromethoxy)phenyl)-1H-1,2,4-triazole-3,5-diyl)bis(2-methylbenzamide)]
OAW28; Ovarian OAW28, overexpression of Cyclin D, loss of p16 (mutant p53), loss of RB
  pIC50: 6.85
OAW28; Table 7a, Ovarian (OAW28)
  pEC50: 6.94
Cyclin D
  degrading Cyclin D, overall statement: effective in degrading Cyclin D
HCT-116
  senescence (SA-βGal levels): induced senescence

## Cc1ccccc1C(=O)Nc1nc(NC(=O)c2ccccc2C)n(-c2ccccc2)n1 [Compound F, 2-methyl-N-[5-[(2-methylbenzoyl)amino]-1-phenyl-1,2,4-triazol-3-yl]benzamide]
COV504
  pIC50: 5.70
Calu-1
  pIC50: 4.36
DLD-1
  pIC50: 5.13
Hutu 80
  pIC50: 5.79
JIMT-1
  pIC50: 5.07
KPL-1
  pIC50: 5.41
LOVO
  pIC50: 5.25
LS174T
  pIC50: 5.63
MDA-MB-231
  pIC50: 5.16
MDA-MB-453
  pIC50: 5.52
MSTO-211H
  pIC50: 5.64
NCl-H1395
  pIC50: 5.12
NCl-H292
  pIC50: 6.02
OVISE
  pIC50: 5.13
OVSAHO
  pIC50: 5.19
OVTOKO
  pIC50: < 5.00
SK-BR-3
  pIC50: 5.52
SK-CO-1
  pIC50: 6.01
SK-LU-1
  pIC50: 5.24
SW527
  pIC50: 5.17
SW948
  pIC50: 5.08
T-47D
  pIC50: 5.13
ZR-75-1
  pIC50: 5.41
